Assay results as given in patent publication US10821127B2, “Composition for inhibiting myeloid-derived suppressor cells comprising decitabine or its pharmaceutically acceptable salt as active ingredient” (SNU R&DB Foundation, priority 2015, dated 2020).

Tests used:
MDSC = conditions: preclinical model; gemcitabine: spleen of tumor-induced mice (Clin Cancer Res 2005; 11: 6713-6721); cited from earlier work
[1] = tested on: myeloid-derived suppressor cells; assay: Dose with MDSC suppression effect in tumorigenic mice; type: in vivo
Protocol: In the preferred embodiment of the present invention, the inventors verified that in order to verify whether the decitabine suppresses the myeloid-derived suppressor cells produced from the bone marrow by the tumor, tumorigenic mice were prepared and the decitabine was administrated for each concentration, and as a result, an effect of suppressing the myeloid-derived suppressor cells by the decitabine is excellent in a dose range of 0.5 to 1 mg/kg.
Accordingly, through Examples 1 to 8, it was verified that the decitabine had excellent effects of suppressing the MDSC and inducing the apoptosis as compared with the gemcitabine and may enhance the effect of a cancer immunotherapy. Further, when the decitabine has an excellent MDSC suppression effect at 0.5 mg/kg and a fifth part to a tenth part of an effective dose (5.25 mg/kg/once, 34 mg/kg/cycle) applied to an actual patient is compared with an effective dose of 120 mg/kg at which the gemcitabine has the MDSC suppression effect, it was verified that the effective dose is a low concentration of a hundredth part or more.

IFN-γ = assay: Cytokine expression in tumor cells after decitabine treatment, PCR (Example 7): IFN-γ; type: cell-based; conditions: MC38 expressing the CEA gene, 0, 10, 100 nM, 48 hours; FIG. 14
Protocol: (§1) In order to verify a possibility of a result that the MDSC creation itself in the bone marrow is decreased by the tumor cells, in addition to a direct apoptotic effect of the MDSC by the reduction of the MDSC cell population caused by the decitabine, an expression change in cytokines inducing the creation of the MDSC cell population after treating the decitabine in the tumor cells was measured.
(§2) Particularly, the decitabine was treated in each well for each concentration 0, 10, 100 nM in a colon cancer cell line MC38 expressing the CEA gene which was cultured for 1 week in a 6-well plate and cultured for 48 hours, and then the cells were collected. Thereafter, from the collected cells, total RNA was isolated by using a trizol reagent (Invitrogen, Carlsbad, Calif.) and then the isolated RNA 5 μg reacted with reverse transcriptase for 1 hour at 42° C. to synthesize a cDNA and 5 minutes at 95° C. to inactivate the enzyme. Polymerase chain reaction (PCR) was performed by using a primer in the following Table 1 by using the cDNA as a template of PCR and a PCR product was electrophoresed with an agarose gel and visualized to confirm expression of IL-6, IFN-γ and VEGF genes.

[2] = tested on: granulocytic, monokaryotic and MDSC cell populations in the bone marrow; assay: Number of cells of subpopulations of myeloid-based cell population in bone marrow of tumorigenic mice (Example 5-2); type: in vivo, mouse
Protocol: (§3) Particularly, in the tumorigenic mice prepared in Example 1, decitabine (DAC) or gemcitabine (GEM) were diluted with 100 μl PBS to be 0, 0.25, 0.5 mg/kg per mouse, administrated in the right abdominal cavity (every 2 days and a total of 10 times) for each concentration, and then sacrificed to extract the spleen and the bone marrow. Thereafter, spleen cells and bone marrow cells were extracted and stained by a trypan blue staining method and then the number of cells was measured by using a hematocytometer.
(§4) In order to verify an effect of decitabine or gemcitabine on cells of a subpopulation of myeloid-based cell populations in the bone marrow, decitabine and gemcitabine were administrated to the tumorigenic mice prepared in Example 1 and then the numbers of cells in a granulocytic cell population, a monokaryotic cell population, and an MDSC cell population in the bone marrow were measured.
(§5) Particularly, by the method disclosed in Example 3, decitabine (DAC) or gemcitabine (GEM) was administrated and then the bone marrow was extracted. Thereafter, the bone marrow was stained by using the antibodies disclosed in Example 4-2, and then the number of cells was measured through a flow cytometer (FIGS. 11 to 12).

VEGF = assay: Cytokine expression in tumor cells after decitabine treatment, PCR (Example 7): VEGF; type: cell-based; conditions: MC38 expressing the CEA gene, 0, 10, 100 nM, 48 hours; FIG. 14
Protocol: as §1, §2

IL-6 = assay: Cytokine expression in tumor cells after decitabine treatment, PCR (Example 7): IL-6; type: cell-based; conditions: MC38 expressing the CEA gene, 0, 10, 100 nM, 48 hours; FIG. 14
Protocol: as §1, §2

[3] = tested on: immune cells in the bone marrow; assay: Number of immune cells in bone marrow of tumorigenic mice, flow cytometer (Example 5-1); type: in vivo, mouse; conditions: for number of T cell populations CD3+ and CD3+CD4+ in the bone marrow: FIG. 8
Protocol: as §3
(§6) In order to verify effects of decitabine and gemcitabine on immune cells in the bone marrow, the decitabine and the gemcitabine were administrated to the tumorigenic mice prepared in Example 1 and then the numbers of cells in a T cell population, a B cell population, an NK cell population, an NKT cell population, and a myeloid-based cell population in the bone marrow were measured.
as §5, with “4-1,” for “4-2,”, “8” for “11”, “10).” for “12).”

[4] = tested on: cells in the spleen and the bone marrow; assay: Number of cells in spleen and bone marrow of tumorigenic mice, trypan blue staining (Example 3); type: in vivo, mouse; conditions: intraperitoneal, every 2 days, 10 times; for number of bone marrow cells: 0, 0.25, 0.5 mg/kg, FIG. 2 right
Protocol: (§7) 150 μl PBS including a colon cancer cell line MC38 1.5×10^6 expressing a human CEA gene was injected hypodermically to the right flank of a 7 to 8-week-old female B6 mouse to form a tumor. The mouse was bred in a Seoul National University laboratory under a temperature of 23.5±1° C. and a humidity of 50±5% in a light/dark cycle of 12 hours. All animal experiments followed the guideline of the Animal Ethics Committee of Seoul National University.
It was well-known that gemcitabine suppressed myeloid-derived suppressor cells (MDSC) derived from the tumor (Clin Cancer Res 2005; 11(18) Sep. 15, 2005), and the gemcitabine has been used as an anticancer chemotherapeutic agent. Accordingly, whether the decitabine is usable as an anticancer chemotherapeutic agent like the gemcitabine was verified through the comparison with the gemcitabine. First, in order to verify effects of decitabine and gemcitabine on cells in the spleen and the bone marrow, the decitabine and the gemcitabine were administrated to the tumorigenic mice prepared in Example 1 and then the number of cells in the spleen and the bone marrow was measured.
as §3

[5] = tested on: granulocytic, monokaryotic and MDSC cell populations in the spleen; assay: Number of cells of subpopulations of myeloid-based cell population in spleen of tumorigenic mice (Example 4-2); type: in vivo, mouse
Protocol: as §3
as §4, with “populations in the spleen and the bone” for “populations in the bone”, “cell population were measured.” for “cell population in the bone marrow were measured.”
Particularly, by the method disclosed in Example 3, decitabine (DAC) or gemcitabine (GEM) was administrated and then the spleen was extracted. Thereafter, monokaryotic and granulocytic cell populations were stained with fluorescence-bound antibodies purchased by BD Corporation and then the numbers of cells were measured through a flow cytometer.
In order to measure the numbers of cell in the monokaryotic cell population and the granulocytic cell population, anti-CD11b, anti-F480 and anti-Gr1 antibodies were used (FIG. 6).
In order to measure the number of cells of the subpopulation of the MDSC cell population, anti-CD11b, anti-Ly6c and anti-Ly6g antibodies were used (FIG. 7).

[6] = tested on: immune cells in the spleen; assay: Number of immune cells in spleen of tumorigenic mice, flow cytometer (Example 4-1); type: in vivo, mouse; conditions: for T cell populations CD3+, CD3+CD4+, CD3+CD8+ in the spleen: 0, 0.25, 0.5 mg/kg intraperitoneal, FIG. 3
Protocol: as §3
as §6, with “spleen,” for “bone marrow,”, “spleen” for “bone marrow”
Particularly, by the method disclosed in Example 3, decitabine (DAC) or gemcitabine (GEM) was administrated and then the spleen was extracted. Thereafter, each immune cell population were stained with fluorescence-bound antibodies purchased by BD Corporation and then the number of cells was measured through a flow cytometer.
In order to measure the number of cells in the T cell population, an anti-CD3 antibody, an anti-CD4 antibody, and an anti-CD8 antibody were used (FIG. 3).
In order to the number of cells in the B cell population, an anti-B220 antibody was used. Further, in order to measure the number of cells in the NK and NKT cell populations, anti-CD3 and anti-NK1.1 antibodies were used (FIG. 4).
In order to measure the number of cells in the myeloid-based cell population, an anti-CD11b antibody and an anti-CD11c antibody were used (FIG. 5).

MDSC cell population = assay: In vitro apoptosis of MDSC cell population, bone marrow stem cells co-cultured with MC38 in Transwell (Example 6); type: cell-based, mouse; conditions: 50 nM, as compared with the gemcitabine; FIG. 13
Protocol: In order to verify effects of decitabine and gemcitabine on apoptosis of an MDSC cell population, the decitabine or the gemcitabine was treated in vitro and then a change in the number of cells in the MDSC cell population was measured.
Particularly, from the tumorigenic mice prepared in Example 1, the bone marrow was extracted and then bone marrow stem cells were isolated. Thereafter, while the bone marrow stem cells in a bottom well and cells of a colon cancer cell line MC38 expressing a CEA gene were co-cultured in an insert well […] with a DMEM culture medium by using a Transwell system, the decitabine and the gemcitabine of concentrations of 50 nM were treated at a third day after cell culture, respectively, and then cells after two days were collected. Thereafter, in order to measure the numbers of cells in the myeloid-based cell population and the MDSC cell population, the cell populations were stained by using an anti-CD11b antibody and an anti-GR1 antibody and then the number of cells was measured through a flow cytometer.

[7] = tested on: colon cancer cell line MC38 expressing a human CEA gene; type: in vivo, mouse; conditions: every 2 days, total of 10 times
Protocol: as §7
It was verified whether decitabine was usable as an anticancer chemotherapy through immune treatment based on a bone marrow-based specific drug effect. First, in order to verify an effect of the decitabine on the tumorigenic mice, the decitabine was administrated to the tumorigenic mice prepared in Example 1 and then changes in tumor size and survival rate were measured.
Particularly, in the tumorigenic mice prepared in Example 1, decitabine (DAC) at a concentration of 40 mg/ml purchased from Sigma Co., Ltd. was diluted with 100 μl PBS to be 0, 0.125, 0.25, 0.5, and 1 mg/kg per mouse and then administrated in the right abdominal cavity (every 2 days and a total of 10 times) for each concentration to verify the tumor size and the survival rate. The tumor size was calculated by the following Equation after measuring a width and a length of a tumor mass at an interval of 2 to 3 days from the time when 10 days elapsed after injecting tumor cells: Long length×short length×short length/2. In the survival rate, the number of surviving mice in each group was calculated by the following Equation: The number of surviving mice/a total number of mice×100

[8] = tested on: myeloid-derived suppressor cells; conditions: gemcitabine comparison dose; cited from earlier work
[9] = compared with the gemcitabine, FIG. 11
[10] = similarly to the gemcitabine, FIG. 6
[11] = at a lower concentration than gemcitabine, FIG. 4
[12] = 0, 0.125, 0.25, 0.5, 1 mg/kg, right abdominal cavity, FIG. 1

In the case of `O=c1[nH]cc(F)c(=O)[nH]1` [5-FU, 5-fluorouracil], the “number of MDSC” value (MDSC) is given as “significantly reduces”.
With `Nc1ncn([C@H]2C[C@H](O)[C@@H](CO)O2)c(=O)n1` [decitabine, 5-aza-2′-deoxycytidine] the “dose with excellent MDSC suppression effect” value [1] was 0.5 mg/kg, the “creation degree (expression) of IFN-γ in the tumor” value (IFN-γ) was “reduced” and the “granulocytic cell population CD11b+F480-Gr1hi in the bone marrow” value [2, 9] was “more rapid reduction”. For the same compound, the “monokaryotic cell population CD11b+F480+Gr1- in the bone marrow” value [2, 9] was “more rapid reduction”, the “subpopulations CD11b+Ly6c+Ly6g+ and CD11b+Ly6chi of the MDSC cell population in the bone marrow” value ([2]; to a much higher degree than the gemcitabine, FIG. 12) was “rapid reduction” and the “creation degree (expression) of VEGF in the tumor” value (VEGF) was “reduced”. For the same compound, the “creation degree (expression) of IL-6 in the tumor” value (IL-6) was “reduced”, the “number of T cell populations CD3+ and CD3+CD4+ in the bone marrow” value [3] was “increased” and the “NK cell population CD3-NK1.1+ in the bone marrow, significant changes” value ([3]; FIG. 9) was “not induced”. For the same compound, the “NKT cell population CD3+NK1.1+ in the bone marrow, significant changes” value ([3]; FIG. 9) was “not induced”, the “B cell population B220+ in the bone marrow” value ([3]; as compared with the gemcitabine, FIG. 9) was “reduction” and the “myeloid-based cell populations CD11b+ and CD11c+ in the bone marrow” value ([3]; as compared with the gemcitabine, FIG. 10) was “rapid reduction”. The “number of bone marrow cells” value [4] was “not significantly exhibited”, the “number of spleen cells” value ([4]; dose concentration 0.5 mg/kg, FIG. 2 left) was “significantly reduced” and the “granulocytic cell population CD11b+F480-Gr1hi in the spleen” value [5, 10] was “rapid reduction”. For the same compound, the “monokaryotic cell population CD11b+F480+Gr1- in the spleen” value [5, 10] was “rapid reduction”, the “subpopulations CD11b+Ly6c+Ly6g+, CD11b+Ly6chi of the MDSC cell population in the spleen” value ([5]; to the degree of similar to or higher than the gemcitabine, FIG. 7) was “rapid reduction” and the “T cell populations CD3+, CD3+CD4+, CD3+CD8+ in the spleen” value [6] was “slight”. For the same compound, the “NKT cell population CD3+NK1.1+ in the spleen, significant change” value ([6]; FIG. 4) was “not induced”, the “myeloid-based cell populations CD11b+ and CD11c+ in the spleen” value ([6]; as compared with the gemcitabine, FIG. 5) was “rapid reduction” and the “B cell population B220+ in the spleen” value [6, 11] was “reduction”. For the same compound, the “NK cell population CD3-NK1.1+ in the spleen” value [6, 11] was “reduction”, the “number of cells in the MDSC cell population in vitro” value (MDSC cell population) was “rapid reduction” and the survival rate [7, 12] was “no difference”. For the same compound, the tumor size [7, 12] was “no difference” and the “toxicity induction by repeated administration” value ([7]; up to 1 mg/kg) was “exclude a toxicity induction possibility”.
In the case of `Nc1ccn([C@@H]2O[C@H](CO)[C@@H](O)C2(F)F)c(=O)n1` [gemcitabine], the “number of T cell populations CD3+ and CD3+CD4+ in the bone marrow” value [3] is listed as “increased”, the “effective dose with MDSC suppression effect” value [8] is listed as 120 mg/kg and the “number of MDSC” value (MDSC) is listed as “significantly reduces”. The “number of bone marrow cells” value [4] was “increased in a concentration-dependent manner” and the “T cell populations CD3+, CD3+CD4+, CD3+CD8+ in the spleen” value [6] was “rapid reduction”.
